Measurements taken from patent US4138554A, “7-[D-α-(4-Hydroxy-1,5-naphthyridine-3-carboxamido)-α-phenyl (and p-hydroxyphenyl)acetamido]-3-carbamoyloxymethyl-3-cephem-4-carboxylic acids” (priority 1977, dated 1979).
Like-named read-outs stand apart in the source and are kept apart here.

Experiments:
[1] = test system: K. pneumoniae; assay: MIC by serial two-fold agar dilution (Mueller-Hinton agar), K. pneumoniae; assay type: cell-based; details: Klebsiella pneumoniae, K. pneumoniae A9977, Table 6
Procedure, shortened: (§1)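 Read-out is the minimum inhibitory concentration from agar plates (Mueller-Hinton) carrying serial two-fold drug dilutions, inoculated via Steers' apparatus. Strains: 31 test organisms in primary screening, 61 P. aeruginosa isolates for secondary evaluation.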

[2] = test system: Klebsiella sp.; assay: MIC by serial two-fold agar dilution (Mueller-Hinton agar), Klebsiella sp.; assay type: cell-based; details: Klebsiella sp. A20452, Table 6; read-out: MIC
Procedure, shortened: as §1

[3] = test system: E. cloacae; assay: MIC by serial two-fold agar dilution (Mueller-Hinton agar), E. cloacae; assay type: cell-based; details: Enterobacter cloacae
Procedure, shortened: as §1

[4] = test system: P. vulgaris; assay: MIC by serial two-fold agar dilution (Mueller-Hinton agar), P. vulgaris; assay type: cell-based; details: Proteus vulgaris; P. vulgaris A9539, Table 6; read-out: MIC
Procedure, shortened: as §1

[5] = test system: P. morganii; assay: MIC by serial two-fold agar dilution (Mueller-Hinton agar), P. morganii; assay type: cell-based; details: Morganella morganii; P. morganii A9553, Table 6; read-out: MIC
Procedure, shortened: as §1

[6] = test system: S. enteritidis; assay: MIC by serial two-fold agar dilution (Mueller-Hinton agar), S. enteritidis; assay type: cell-based; details: Salmonella enterica; S. enteritidis A9531, Table 6; read-out: MIC
Procedure, shortened: as §1

[7] = test system: S. marcescens; assay: MIC by serial two-fold agar dilution (Mueller-Hinton agar), S. marcescens; assay type: cell-based; details: Serratia marcescens; S. marcescens A20019, Table 6; read-out: MIC
Procedure, shortened: as §1

[8] = test system: Pseudomonas aeruginosa; assay: MIC by agar dilution against 61 strains of Pseudomonas aeruginosa, secondary evaluation; assay type: cell-based; details: for MIC: Pseudomonas aeruginosa
Procedure, shortened: as §1

[9] = test system: Gram-positive (6 strains); assay: Mean % relative activity (MIC) vs sulbenicillin, Gram-positive (6 strains); assay type: cell-based; details: G (+) (6 strains), Table 5
Procedure: (§2) Minimum inhibitory concentrations (MIC) of BB-S520 were determined by serial two-fold agar dilution method using Steers' apparatus on Meuller-Hinton agar plate against 31 test organisms for the primary screening and also against 61 strains of Pseudomonas aeruginosa for the secondary evaluation. The results are shown in Table 1 and Table 2 along with those of BB-S514 and sulbenicillin.
(§3) Minimum inhibitory concentrations (MIC) of cephalosporins in the present study were determined by serial two-fold agar dilution method using Steers' apparatus on Mueller-Hinton agar plate against 31 test organisms for the primary screening and also against 61 strains of Pseudomonas aeruginosa for the secondary evaluation.

[10] = test system: Gram-negative (19 strains); assay: Mean % relative activity (MIC) vs sulbenicillin, Gram-negative (19 strains); assay type: cell-based; details: G (-) (19 strains), Table 5
Procedure: as §2, §3

[11] = test system: Pseudomonas (6 strains); assay: Mean % relative activity (MIC) vs sulbenicillin, Pseudomonas (6 strains); assay type: cell-based; details: P. aerug. (6 strains), Table 5
Procedure: as §2, §3

[12] = test system: S. aureus Smith; assay: Median curative dose in mice, infection with S. aureus Smith; assay type: in vivo; details: Staphylococcus aureus, sc; mice, S. aureus Smith infection, Table 5; read-out: PD50
Excerpt: (§4) Median Curative Dose in Mgm./Kg.
(§5) Upon Subcutaneous Injection in Mice

[13] = test system: E. coli Juhl; assay: Median curative dose in mice, infection with E. coli Juhl; assay type: in vivo; details: Escherichia coli, sc; mice, E. coli Juhl infection, Table 5; read-out: PD50
Excerpt: as §4, §5

[14] = test system: Ps. aeruginosa A9843; assay: Median curative dose in mice, infection with Ps. aeruginosa; assay type: in vivo; details: Pseudomonas aeruginosa, A9843, sc, mice, P. aerug. A9843 infection, Table 5; read-out: PD50
Excerpt: as §4, §5

Compound: NC(=O)OCC1=C(C(=O)O)N2C(=O)C(NC(=O)[C@H](NC(=O)c3cnc4cccnc4c3O)c3ccc(O)cc3)C2SC1 (single isomer, unassigned) [BB-S530, Sodium 7-[D-(-)-α-(4-hydroxy-1,5-naphthyridine-3-carboxamido)-α-(p-hydroxyphenyl)acetamido]-3-carbamoyloxymethyl-3-cephem-4-carboxylate]
- MIC [1]: 1.6 µg/mL
- MIC [2]: 1.6 µg/mL
- MIC ([3]; E. cloacae A9656, Table 6): 12.5 µg/mL
- MIC ([3]; E. cloacae A9657, Table 6): 100 µg/mL
- MIC ([3]; E. cloacae A9659, Table 6): 100 µg/mL
- MIC [4]: > 100 µg/mL
- MIC [5]: > 100 µg/mL
- MIC [6]: 0.8 µg/mL
- MIC [7]: > 100 µg/mL
- Rel. Act. (SBPC=100%) ([8]; 61 strains of Pseudomonas aeruginosa, Table 7): 1694%
- Mean % Relative Activity (SPBC = 100%) ([8]; P. aerug. (61 strains), Table 5): 1694%
- MIC ([8]; 61 strains of Pseudomonas aeruginosa, Table 7, read-out: Geometric Mean of MIC): 1.4 µg/mL
- MIC ([8]; BBRI Pa-No. 1, D15, Table 7, read-out: MIC): 6.3 µg/mL
- MIC ([8]; BBRI Pa-No. 2, VA, Table 7, read-out: MIC): 1.6 µg/mL
- MIC ([8]; BBRI Pa-No. 3, 1449VA, Table 7, read-out: MIC): 0.8 µg/mL
- MIC ([8]; BBRI Pa-No. 4, H9 D113, Table 7, read-out: MIC): 1.6 µg/mL
- MIC ([8]; BBRI Pa-No. 5, N4865KC, Table 7, read-out: MIC): 1.6 µg/mL
- MIC ([8]; BBRI Pa-No. 6, No. 5, Table 7, read-out: MIC): 6.3 µg/mL
- MIC ([8]; BBRI Pa-No. 7, Table 7, read-out: MIC): 1.6 µg/mL
- MIC ([8]; BBRI Pa-No. 8, Table 7, read-out: MIC): 1.6 µg/mL
- MIC ([8]; BBRI Pa-No. 9, Yale, Table 7, read-out: MIC): 1.6 µg/mL
- MIC ([8]; BBRI Pa-No. 10, Table 7, read-out: MIC): 100 µg/mL
- MIC ([8]; BBRI Pa-No. 11, Table 7, read-out: MIC): 1.6 µg/mL
- MIC ([8]; BBRI Pa-No. 12, Table 7, read-out: MIC): 1.6 µg/mL
- MIC ([8]; BBRI Pa-No. 14, Table 7, read-out: MIC): 0.8 µg/mL
- MIC ([8]; BBRI Pa-No. 15, Table 7, read-out: MIC): 3.1 µg/mL
- MIC ([8]; BBRI Pa-No. 16, No. 130, Table 7, read-out: MIC): < 0.2 µg/mL
- MIC ([8]; BBRI Pa-No. 17, H6 D114, Table 7, read-out: MIC): 12.5 µg/mL
- MIC ([8]; BBRI Pa-No. 18, H8 D121, Table 7, read-out: MIC): 0.4 µg/mL
- MIC ([8]; BBRI Pa-No. 19, Table 7, read-out: MIC): 0.4 µg/mL
- MIC ([8]; BBRI Pa-No. 20, Table 7, read-out: MIC): 1.6 µg/mL
- MIC ([8]; BBRI Pa-No. 21, Table 7, read-out: MIC): 1.6 µg/mL
- MIC ([8]; BBRI Pa-No. 23, Table 7, read-out: MIC): 1.6 µg/mL
- MIC ([8]; BBRI Pa-No. 24, Table 7, read-out: MIC): 50 µg/mL
- MIC ([8]; BBRI Pa-No. 25, Table 7, read-out: MIC): 0.8 µg/mL
- MIC ([8]; BBRI Pa-No. 26, Ps32, Table 7, read-out: MIC): 6.3 µg/mL
- MIC ([8]; BBRI Pa-No. 28, CPH1C527/72, Table 7, read-out: MIC): 1.6 µg/mL
- MIC ([8]; BBRI Pa-No. 29, D122, Table 7, read-out: MIC): 0.8 µg/mL
- MIC ([8]; BBRI Pa-No. 30, Table 7, read-out: MIC): 0.8 µg/mL
- MIC ([8]; BBRI Pa-No. 31, Table 7, read-out: MIC): < 0.2 µg/mL
- MIC ([8]; BBRI Pa-No. 32, Table 7, read-out: MIC): 0.8 µg/mL
- MIC ([8]; BBRI Pa-No. 33, Table 7, read-out: MIC): 0.8 µg/mL
- MIC ([8]; BBRI Pa-No. 34, Table 7, read-out: MIC): 0.4 µg/mL
- MIC ([8]; BBRI Pa-No. 35, Table 7, read-out: MIC): 1.6 µg/mL
- MIC ([8]; BBRI Pa-No. 36, Table 7, read-out: MIC): < 0.2 µg/mL
- MIC ([8]; BBRI Pa-No. 37, Table 7, read-out: MIC): 1.6 µg/mL
- MIC ([8]; BBRI Pa-No. 38, Table 7, read-out: MIC): 3.1 µg/mL
- MIC ([8]; BBRI Pa-No. 39, Table 7, read-out: MIC): 0.8 µg/mL
- MIC ([8]; BBRI Pa-No. 41, Table 7, read-out: MIC): 1.6 µg/mL
- MIC ([8]; BBRI Pa-No. 42, Table 7, read-out: MIC): 1.6 µg/mL
- MIC ([8]; BBRI Pa-No. 43, Table 7, read-out: MIC): 1.6 µg/mL
- MIC ([8]; BBRI Pa-No. 44 (unnamed strain), Table 7, read-out: MIC): 1.6 µg/mL
- MIC ([8]; BBRI Pa-No. 51, Table 7, read-out: MIC): 0.8 µg/mL
- MIC ([8]; BBRI Pa-No. 52, Table 7, read-out: MIC): 1.6 µg/mL
- MIC ([8]; BBRI Pa-No. 53, Table 7, read-out: MIC): 0.8 µg/mL
- MIC ([8]; BBRI Pa-No. 54, Table 7, read-out: MIC): 0.8 µg/mL
- MIC ([8]; BBRI Pa-No. 55, Table 7, read-out: MIC): 1.6 µg/mL
- MIC ([8]; BBRI Pa-No. 56, Table 7, read-out: MIC): 1.6 µg/mL
- MIC ([8]; BBRI Pa-No. 57, Table 7, read-out: MIC): 0.8 µg/mL
- MIC ([8]; BBRI Pa-No. 58, Table 7, read-out: MIC): 1.6 µg/mL
- MIC ([8]; BBRI Pa-No. 59, Table 7, read-out: MIC): 0.8 µg/mL
- MIC ([8]; BBRI Pa-No. 60, Table 7, read-out: MIC): 0.8 µg/mL
- MIC ([8]; BBRI Pa-No. 61, Table 7, read-out: MIC): 1.6 µg/mL
- MIC ([8]; BBRI Pa-No. 62, Table 7, read-out: MIC): 100 µg/mL
- MIC ([8]; BBRI Pa-No. 64, Table 7, read-out: MIC): 1.6 µg/mL
- MIC ([8]; BBRI Pa-No. 65, Table 7, read-out: MIC): 1.6 µg/mL
- MIC ([8]; BBRI Pa-No. 66, Table 7, read-out: MIC): 0.8 µg/mL
- MIC ([8]; BBRI Pa-No. 67, Table 7, read-out: MIC): 1.6 µg/mL
- MIC ([8]; BBRI Pa-No. 68, Table 7, read-out: MIC): 1.6 µg/mL
- MIC ([8]; BBRI Pa-No. 69, Table 7, read-out: MIC): 3.1 µg/mL
- MIC ([8]; BBRI Pa-No. 70, K-Ps102(CR-102), Table 7, read-out: MIC): 0.8 µg/mL
- MIC ([8]; GN315, BBRI Pa-No. 27, GN315, Table 7, read-out: MIC): 0.4 µg/mL
- MIC ([8]; GN4925, BBRI Pa-No. 44, GN4925, Table 7, read-out: MIC): 1.6 µg/mL
- Mean % Relative Activity (SPBC = 100%) [9]: 141%
- Mean % Relative Activity (SPBC = 100%) [10]: 108%
- Mean % Relative Activity (SPBC = 100%) [11]: 1425%
- ED50 [12]: 1.3 mg/kg
- ED50 [13]: 1.8 mg/kg
- ED50 [14]: 9.3 mg/kg
